Data: ChEMBL document CHEMBL1132968, “Substituent effects on the antibacterial activity of nitrogen-carbon-linked (azolylphenyl)oxazolidinones with expanded activity against the fastidious gram-negative organisms Haemophilus influenzae and Moraxella catarrhalis” (2000)
In brackets after ≈: the same amount, converted by molar mass.

What was measured:
Assay type in all cases: functional
Enterococcus faecalis = assay: Inhibitory activity against Enterococcus faecalis UC9217
Moraxella catarrhalis = assay: Inhibitory activity against Moraxella catarrhalis UC30610
Haemophilus influenzae = assay: Inhibitory activity against Haemophilus influenzae UC30063
Streptococcus pneumoniae = assay: Inhibitory activity against Streptococcus pneumoniae UC9912
Staphylococcus aureus [1] = assay: Inhibitory activity against Methicillin-susceptible Staphylococcus aureus UC9213
[2] = tested on: Staphylococcus epidermidis; assay: Inhibitory activity against Methicillin-resistant Staphylococcus epidermidis UC12084
Staphylococcus aureus [3] = assay: Inhibitory activity against Methicillin-resistant Staphylococcus aureus UC6685

Row | Structure (SMILES) | MIC (Enterococcus faecalis) [µg/mL] | MIC (Moraxella catarrhalis) [µg/mL] | MIC (Haemophilus influenzae) [µg/mL] | MIC (Streptococcus pneumoniae) [µg/mL] | MIC (Staphylococcus aureus [1]) [µg/mL] | MIC [2] [µg/mL] | MIC (Staphylococcus aureus [3]) [µg/mL]
1 | CC(=O)NC[C@H]1CN(c2ccc(-n3ccc(NS(C)(=O)=O)n3)c(F)c2)C(=O)O1 | > 16 | > 16 | > 16 | 4 (≈ 9.72 µM) | > 16 | 4 (≈ 9.72 µM) | –
2 | CC(=O)NC[C@H]1CN(c2ccc(-n3ncnn3)c(F)c2)C(=O)O1 | 1 (≈ 3.12 µM) | 8 (≈ 25 µM) | 8 (≈ 25 µM) | 0.5 (≈ 1.56 µM) | 2 (≈ 6.24 µM) | 1 (≈ 3.12 µM) | 2 (≈ 6.24 µM)
3 | CC(=O)NC[C@H]1CN(c2ccc(-n3cc(C#C[Si](C)(C)C)cn3)c(F)c2)C(=O)O1 | 8 (≈ 19.3 µM) | > 16 | > 16 | 2 (≈ 4.82 µM) | 4 (≈ 9.65 µM) | 2 (≈ 4.82 µM) | 4 (≈ 9.65 µM)
4 | CC(=O)NC[C@H]1CN(c2ccc(-n3ccc(CCCO)c3)c(F)c2)C(=O)O1 | 2 (≈ 5.33 µM) | 8 (≈ 21.3 µM) | > 16 | 0.5 (≈ 1.33 µM) | 4 (≈ 10.7 µM) | 1 (≈ 2.66 µM) | 4 (≈ 10.7 µM)
5 | CC(=O)NC[C@H]1CN(c2ccc(-n3ccc(C)n3)c(F)c2)C(=O)O1 | 4 (≈ 12 µM) | 16 (≈ 48.1 µM) | > 16 | 1 (≈ 3.01 µM) | 4 (≈ 12 µM) | 1 (≈ 3.01 µM) | 4 (≈ 12 µM)
6 | CC(=O)NC[C@H]1CN(c2ccc(-n3nnc(/C=N/O)n3)c(F)c2)C(=O)O1 | 4 (≈ 11 µM) | 8 (≈ 22 µM) | 16 (≈ 44 µM) | 0.5 (≈ 1.38 µM) | 4 (≈ 11 µM) | 1 (≈ 2.75 µM) | 4 (≈ 11 µM)
7 | CC(=O)NC[C@H]1CN(c2ccc(-n3ccc(NC(=O)CO)n3)c(F)c2)C(=O)O1 | 8 (≈ 20.4 µM) | > 16 | > 16 | 1 (≈ 2.56 µM) | 16 (≈ 40.9 µM) | 4 (≈ 10.2 µM) | 16 (≈ 40.9 µM)
8 | CC(=O)NC[C@H]1CN(c2ccc(-n3ccc(C#N)n3)c(F)c2)C(=O)O1 | 2 (≈ 5.83 µM) | 8 (≈ 23.3 µM) | 16 (≈ 46.6 µM) | 0.5 (≈ 1.46 µM) | 1 (≈ 2.91 µM) | 0.5 (≈ 1.46 µM) | 1 (≈ 2.91 µM)
9 | CC(=O)NC[C@H]1CN(c2ccc(-n3ccc(C(N)=O)c3)c(F)c2)C(=O)O1 | 4 (≈ 11.1 µM) | > 16 | > 16 | 0.25 (≈ 0.694 µM) | 16 (≈ 44.4 µM) | 1 (≈ 2.78 µM) | 8 (≈ 22.2 µM)
10 | CC(=O)NC[C@H]1CN(c2ccc(-n3ccc(NC(=O)OC(C)(C)C)n3)c(F)c2)C(=O)O1 | 2 (≈ 4.61 µM) | 8 (≈ 18.5 µM) | > 16 | 0.5 (≈ 1.15 µM) | 4 (≈ 9.23 µM) | 2 (≈ 4.61 µM) | 2 (≈ 4.61 µM)
11 | CC(=O)NC[C@H]1CN(c2ccc(-n3cc(/C=N/O)nn3)c(F)c2)C(=O)O1 | 8 (≈ 22.1 µM) | 8 (≈ 22.1 µM) | > 16 | 0.5 (≈ 1.38 µM) | 8 (≈ 22.1 µM) | 1 (≈ 2.76 µM) | 2 (≈ 5.52 µM)
12 | CC(=O)NC[C@H]1CN(c2ccc(-n3nnc(C#N)n3)c(F)c2)C(=O)O1 | 2 (≈ 5.79 µM) | 4 (≈ 11.6 µM) | 16 (≈ 46.3 µM) | 0.5 (≈ 1.45 µM) | 2 (≈ 5.79 µM) | 0.5 (≈ 1.45 µM) | 1 (≈ 2.9 µM)
13 | CC(=O)NC[C@H]1CN(c2ccc(-n3nnc(C=O)n3)c(F)c2)C(=O)O1 | 16 (≈ 45.9 µM) | 16 (≈ 45.9 µM) | 16 (≈ 45.9 µM) | 1 (≈ 2.87 µM) | 8 (≈ 23 µM) | 2 (≈ 5.74 µM) | 4 (≈ 11.5 µM)
14 | CC(=O)NC[C@H]1CN(c2ccc(-n3cc(NC(=O)OC(C)(C)C)cn3)c(F)c2)C(=O)O1 | 8 (≈ 18.5 µM) | > 16 | > 16 | 1 (≈ 2.31 µM) | 8 (≈ 18.5 µM) | 2 (≈ 4.61 µM) | 4 (≈ 9.23 µM)
15 | CC(=O)NC[C@H]1CN(c2ccc(-n3cc(NC(C)=O)cn3)c(F)c2)C(=O)O1 | 16 (≈ 42.6 µM) | > 16 | > 16 | 1 (≈ 2.66 µM) | > 16 | 2 (≈ 5.33 µM) | 16 (≈ 42.6 µM)
16 | CNC(=O)c1cnn(-c2ccc(N3C[C@H](CNC(C)=O)OC3=O)cc2F)c1 | 16 (≈ 42.6 µM) | 16 (≈ 42.6 µM) | > 16 | 0.5 (≈ 1.33 µM) | > 16 | 2 (≈ 5.33 µM) | –
17 | CC(=O)NC[C@H]1CN(c2ccc(-n3cc(CO)nn3)c(F)c2)C(=O)O1 | 2 (≈ 5.73 µM) | 2 (≈ 5.73 µM) | 4 (≈ 11.5 µM) | 0.25 (≈ 0.716 µM) | 4 (≈ 11.5 µM) | 0.5 (≈ 1.43 µM) | 4 (≈ 11.5 µM)
18 | C#Cc1cnn(-c2ccc(N3C[C@H](CNC(C)=O)OC3=O)cc2F)c1 | 2 (≈ 5.84 µM) | 8 (≈ 23.4 µM) | > 16 | 0.5 (≈ 1.46 µM) | 2 (≈ 5.84 µM) | 1 (≈ 2.92 µM) | 2 (≈ 5.84 µM)
19 | CC(=O)NC[C@H]1CN(c2ccc(-n3ccc(=O)[nH]3)c(F)c2)C(=O)O1 | 8 (≈ 23.9 µM) | 8 (≈ 23.9 µM) | 16 (≈ 47.9 µM) | 1 (≈ 2.99 µM) | 8 (≈ 23.9 µM) | 1 (≈ 2.99 µM) | 8 (≈ 23.9 µM)
20 | CC(=O)NC[C@H]1CN(c2ccc(-n3cnc(C(N)=O)n3)c(F)c2)C(=O)O1 | > 16 | 16 (≈ 44.2 µM) | > 16 | 2 (≈ 5.52 µM) | > 16 | 16 (≈ 44.2 µM) | –
